Reference: PubChem BioAssay (NCI)
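Briefly, cells in 96-well plates were exposed to five compound concentrations for 48 h, and endpoints were estimated by linear interpolation. Abbreviation: GI50, concentration required for 50% inhibition of growth. TGI is the concentration that stops growth completely.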

Legend:
Assay in all cases: inhibition of tumour cell growth, NCI panel, 48 h
ACHN renal = test system: ACHN renal
EKVX NSCLC = test system: EKVX NSCLC
HOP-62 NSCLC = test system: HOP-62 NSCLC
IGROV1 ovarian = test system: IGROV1 ovarian
KM12 colon = test system: KM12 colon
RXF 393 renal = test system: RXF 393 renal
UO-31 renal = test system: UO-31 renal
DU-145 prostate = test system: DU-145 prostate
MDA-MB-231 breast = test system: MDA-MB-231 breast
UACC-62 melanoma = test system: UACC-62 melanoma

Cc1nc(Cl)nc(Cl)c1C
TGI (ACHN renal): > 100 µM
TGI (EKVX NSCLC): > 100 µM
TGI (HOP-62 NSCLC): > 100 µM
TGI (IGROV1 ovarian): > 100 µM
TGI (KM12 colon): > 100 µM
TGI (RXF 393 renal): > 100 µM
TGI (UO-31 renal): > 100 µM

Cn1cc(C2=C(c3cccc4ccccc34)C(=O)NC2=O)c2ccccc21
GI50 (ACHN renal): 7.48 µM
TGI (ACHN renal): > 25 µM
GI50 (DU-145 prostate): 12.3 µM
TGI (DU-145 prostate): > 25 µM
GI50 (HOP-62 NSCLC): 18.5 µM
TGI (HOP-62 NSCLC): > 25 µM
GI50 (IGROV1 ovarian): 11.2 µM
TGI (IGROV1 ovarian): > 24.1 µM
GI50 (KM12 colon): 7.3 µM
TGI (KM12 colon): > 22.6 µM
GI50 (MDA-MB-231 breast): 8.74 µM
TGI (MDA-MB-231 breast): > 25 µM
GI50 (RXF 393 renal): 4.41 µM
TGI (RXF 393 renal): 9.93 µM
GI50 (UACC-62 melanoma): 8.33 µM
TGI (UACC-62 melanoma): > 25 µM
GI50 (UO-31 renal): 7.38 µM
TGI (UO-31 renal): > 25 µM

C/C(=C\C(C)COCc1ccccc1)[C@H](COCc1ccccc1)OCc1ccccc1 (stereo partly specified)
TGI (ACHN renal): > 100 µM
TGI (EKVX NSCLC): > 100 µM
TGI (HOP-62 NSCLC): > 100 µM
TGI (IGROV1 ovarian): > 100 µM
TGI (KM12 colon): > 100 µM
TGI (RXF 393 renal): > 100 µM
TGI (UACC-62 melanoma): > 100 µM
TGI (UO-31 renal): > 100 µM

COc1cc(/C=C2\[C@H]3c4c(c(OC)c(C)c(OC)c4OC)C[C@@H](C(=O)N2Cc2ccccc2)N3C(=O)OCC(C)C)c(OC)c(C)c1OC
TGI (ACHN renal): > 100 µM
TGI (EKVX NSCLC): > 100 µM
TGI (HOP-62 NSCLC): > 100 µM
TGI (IGROV1 ovarian): > 100 µM
TGI (KM12 colon): > 100 µM
TGI (RXF 393 renal): > 100 µM
TGI (UACC-62 melanoma): > 100 µM
TGI (UO-31 renal): > 100 µM

COc1ccc2c(=O)c(C)c(-c3ccccc3)oc2c1CN(C)C
TGI (ACHN renal): > 100 µM
TGI (EKVX NSCLC): > 100 µM
TGI (HOP-62 NSCLC): > 100 µM
TGI (IGROV1 ovarian): > 100 µM
TGI (KM12 colon): > 100 µM
TGI (RXF 393 renal): > 100 µM
TGI (UACC-62 melanoma): > 100 µM
TGI (UO-31 renal): > 100 µM

COc1ccc2c(c1)c(-c1ccc(-c3cn(S(=O)(=O)c4ccccc4)c4ccc(OC)cc34)s1)cn2S(=O)(=O)c1ccccc1
GI50 (ACHN renal): > 100 µM
TGI (ACHN renal): > 100 µM
GI50 (DU-145 prostate): > 100 µM
TGI (DU-145 prostate): > 100 µM
GI50 (EKVX NSCLC): > 100 µM
TGI (EKVX NSCLC): > 100 µM
GI50 (HOP-62 NSCLC): > 100 µM
TGI (HOP-62 NSCLC): > 100 µM
GI50 (IGROV1 ovarian): > 100 µM
TGI (IGROV1 ovarian): > 100 µM
GI50 (KM12 colon): > 100 µM
TGI (KM12 colon): > 100 µM
GI50 (MDA-MB-231 breast): > 100 µM
TGI (MDA-MB-231 breast): > 100 µM
GI50 (UACC-62 melanoma): > 100 µM
TGI (UACC-62 melanoma): > 100 µM
GI50 (UO-31 renal): > 100 µM
TGI (UO-31 renal): > 100 µM

O=c1/c(=C/c2cccc([N+](=O)[O-])c2)sc2nc3ccccc3n12
TGI (ACHN renal): > 100 µM
TGI (EKVX NSCLC): > 100 µM
TGI (HOP-62 NSCLC): > 100 µM
TGI (KM12 colon): > 100 µM
TGI (RXF 393 renal): > 100 µM
TGI (UACC-62 melanoma): > 100 µM
TGI (UO-31 renal): > 100 µM

CCOC(C)C(/C=N/NC(N)=S)=NNC(N)=S (stereo unspecified)
TGI (ACHN renal): > 100 µM
TGI (EKVX NSCLC): > 100 µM
TGI (HOP-62 NSCLC): > 100 µM
TGI (KM12 colon): > 100 µM
TGI (UACC-62 melanoma): > 100 µM
TGI (UO-31 renal): > 77.2 µM

COc1cc(/C=C2/C(=O)N(C(=O)OC(C)C)C(Cc3cc(OC)c(OC)c(C)c3OC)C(=O)N2Cc2ccccc2)c(OC)c(C)c1OC (stereo unspecified)
TGI (ACHN renal): > 100 µM
TGI (EKVX NSCLC): > 100 µM
TGI (HOP-62 NSCLC): > 100 µM
TGI (IGROV1 ovarian): > 100 µM
TGI (KM12 colon): > 100 µM
TGI (RXF 393 renal): > 100 µM
TGI (UACC-62 melanoma): > 100 µM
TGI (UO-31 renal): > 100 µM

Cc1cc(O)cc2oc(=O)c3c(O)cc(O)cc3c12
TGI (ACHN renal): 71.1 µM
TGI (EKVX NSCLC): 75.1 µM
TGI (HOP-62 NSCLC): 50.9 µM
TGI (IGROV1 ovarian): 74.7 µM
TGI (KM12 colon): > 100 µM
TGI (RXF 393 renal): 54.5 µM
TGI (UACC-62 melanoma): 81 µM
TGI (UO-31 renal): > 100 µM

Cc1c(Cl)ccc2c1NC(=O)C2(O)C(C(=O)c1ccccc1)c1ccccc1 (stereo unspecified)
TGI (ACHN renal): > 100 µM
TGI (EKVX NSCLC): > 100 µM
TGI (HOP-62 NSCLC): > 100 µM
TGI (IGROV1 ovarian): > 100 µM
TGI (KM12 colon): > 100 µM
TGI (RXF 393 renal): 73.8 µM
TGI (UACC-62 melanoma): 46 µM
TGI (UO-31 renal): > 100 µM

O=S1c2ccccc2N=C(c2ccc3ccccc3c2)CC1C1=CC=CCC1 (stereo unspecified)
TGI (ACHN renal): 42.6 µM
TGI (EKVX NSCLC): 42.8 µM
TGI (HOP-62 NSCLC): 40.4 µM
TGI (IGROV1 ovarian): 28.9 µM
TGI (KM12 colon): 32.2 µM
TGI (RXF 393 renal): 30.4 µM
TGI (UACC-62 melanoma): 34.5 µM
TGI (UO-31 renal): 26.7 µM

COc1ccccc1OCC(=O)Nc1sc2c(c1C(N)=O)CCC2
GI50 (ACHN renal): > 100 µM
TGI (ACHN renal): > 100 µM
GI50 (DU-145 prostate): > 100 µM
TGI (DU-145 prostate): > 100 µM
GI50 (EKVX NSCLC): > 100 µM
TGI (EKVX NSCLC): > 100 µM
GI50 (HOP-62 NSCLC): > 100 µM
TGI (HOP-62 NSCLC): > 100 µM
GI50 (IGROV1 ovarian): > 100 µM
TGI (IGROV1 ovarian): > 100 µM
GI50 (KM12 colon): > 100 µM
TGI (KM12 colon): > 100 µM
GI50 (MDA-MB-231 breast): > 100 µM
TGI (MDA-MB-231 breast): > 100 µM
GI50 (UACC-62 melanoma): 38.1 µM
TGI (UACC-62 melanoma): > 100 µM
GI50 (UO-31 renal): > 100 µM
TGI (UO-31 renal): > 100 µM

COc1ccc(C(=O)OCC2OC(n3cnc4c(=S)nc[nH]c43)C(OC(=O)c3ccc(OC)cc3)C2OC(=O)c2ccc(OC)cc2)cc1 (stereo unspecified)
TGI (ACHN renal): > 100 µM
TGI (HOP-62 NSCLC): > 100 µM
TGI (IGROV1 ovarian): > 100 µM
TGI (KM12 colon): > 100 µM
TGI (UACC-62 melanoma): > 100 µM
TGI (UO-31 renal): > 100 µM

CC[C@H](C)[C@H]1NC(=O)[C@@H](N[C@](C)(O)[C@@H](N)CC(C)C)[C@@H](C)OC(=O)[C@H](Cc2ccc(OC)cc2)N(C)C(=O)[C@@H]2CCCN2C(=O)[C@H](CC(C)C)NC(=O)[C@@H](C)C(=O)[C@H](C(C)C)OC(=O)C[C@@H]1O
GI50 (ACHN renal): 0.0428 µM
TGI (ACHN renal): 2.67 µM
GI50 (DU-145 prostate): 0.00903 µM
TGI (DU-145 prostate): 0.509 µM
GI50 (HOP-62 NSCLC): 0.0146 µM
TGI (HOP-62 NSCLC): 0.601 µM
GI50 (IGROV1 ovarian): 0.0133 µM
TGI (IGROV1 ovarian): 0.413 µM
GI50 (KM12 colon): < 0.0108 µM
TGI (KM12 colon): 0.829 µM
GI50 (MDA-MB-231 breast): 0.0263 µM
TGI (MDA-MB-231 breast): 0.233 µM
GI50 (RXF 393 renal): 0.019 µM
TGI (RXF 393 renal): 0.173 µM
GI50 (UACC-62 melanoma): 0.0109 µM
TGI (UACC-62 melanoma): 0.16 µM
GI50 (UO-31 renal): 0.343 µM
TGI (UO-31 renal): 3.31 µM

COC(=O)C1=C2CCC(=O)[C@@]2(C)C(OC(C)=O)C=CC1 (stereo partly specified)
TGI (ACHN renal): > 100 µM
TGI (EKVX NSCLC): > 100 µM
TGI (HOP-62 NSCLC): > 100 µM
TGI (IGROV1 ovarian): > 100 µM
TGI (KM12 colon): > 100 µM
TGI (RXF 393 renal): > 100 µM
TGI (UACC-62 melanoma): > 100 µM
TGI (UO-31 renal): > 100 µM

CC(=O)[CH-]C(=O)c1ccccc1.CC(=O)[CH-]C(=O)c1ccccc1.CC[O-].CC[O-].[Zr+4]
GI50 (ACHN renal): > 100 µM
TGI (ACHN renal): > 100 µM
GI50 (EKVX NSCLC): 91.6 µM
TGI (EKVX NSCLC): > 100 µM
GI50 (HOP-62 NSCLC): > 100 µM
TGI (HOP-62 NSCLC): > 100 µM
GI50 (IGROV1 ovarian): > 100 µM
TGI (IGROV1 ovarian): > 100 µM
GI50 (KM12 colon): > 100 µM
TGI (KM12 colon): > 100 µM
GI50 (RXF 393 renal): > 100 µM
TGI (RXF 393 renal): > 100 µM
GI50 (UACC-62 melanoma): > 100 µM
TGI (UACC-62 melanoma): > 100 µM
GI50 (UO-31 renal): > 100 µM
TGI (UO-31 renal): > 100 µM

O=S(=O)(/C=C/c1ccc(Cl)cc1Cl)Cc1ccccc1CS(=O)(=O)/C=C/c1ccc(Cl)cc1Cl
TGI (ACHN renal): > 100 µM
TGI (EKVX NSCLC): > 100 µM
TGI (HOP-62 NSCLC): > 100 µM
TGI (IGROV1 ovarian): > 100 µM
TGI (KM12 colon): > 100 µM
TGI (RXF 393 renal): > 100 µM
TGI (UACC-62 melanoma): > 100 µM
TGI (UO-31 renal): > 100 µM

CC1CC2(C)ON=C(c3ccccc3)N2c2ccccc2S1 (stereo unspecified)
GI50 (ACHN renal): 32.8 µM
GI50 (DU-145 prostate): 54.5 µM
GI50 (EKVX NSCLC): 29.4 µM
GI50 (HOP-62 NSCLC): 56.7 µM
GI50 (IGROV1 ovarian): 53 µM
GI50 (KM12 colon): 17.5 µM
TGI (KM12 colon): 42.5 µM
GI50 (UACC-62 melanoma): 21 µM
TGI (UACC-62 melanoma): 84.3 µM
GI50 (UO-31 renal): 28.1 µM
